# Results as given in PubChem BioAssay (NCI).
#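 Results reflect a 48-hour exposure of cells in 96-well plates to compound at five concentrations. TGI: total growth inhibition.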
# Key:
# Test in all cases: NCI anticancer screen, dose series, 48 h
# 786-0 renal = tested on: 786-0 renal
# A498 renal = tested on: A498 renal
# A549 NSCLC = tested on: A549 NSCLC
# ACHN renal = tested on: ACHN renal
# BT-549 breast = tested on: BT-549 breast
# CAKI-1 renal = tested on: CAKI-1 renal
# CCRF-CEM leukemia = tested on: CCRF-CEM leukemia
# COLO 205 colon = tested on: COLO 205 colon
# DU-145 prostate = tested on: DU-145 prostate
# EKVX NSCLC = tested on: EKVX NSCLC
# HCC-2998 colon = tested on: HCC-2998 colon
# HCT-116 colon = tested on: HCT-116 colon
# HCT-15 colon = tested on: HCT-15 colon
# HL-60(TB) leukemia = tested on: HL-60(TB) leukemia
# HOP-62 NSCLC = tested on: HOP-62 NSCLC
# HOP-92 NSCLC = tested on: HOP-92 NSCLC
# HS 578T breast = tested on: HS 578T breast
# HT29 colon = tested on: HT29 colon
# IGROV1 ovarian = tested on: IGROV1 ovarian
# K-562 leukemia = tested on: K-562 leukemia
# KM12 colon = tested on: KM12 colon
# LOX IMVI melanoma = tested on: LOX IMVI melanoma
# M14 melanoma = tested on: M14 melanoma
# MALME-3M melanoma = tested on: MALME-3M melanoma
# MCF7 breast = tested on: MCF7 breast
# MDA-MB-231 breast = tested on: MDA-MB-231 breast
# MDA-MB-435 = tested on: MDA-MB-435
# MDA-N = tested on: MDA-N
# MOLT-4 leukemia = tested on: MOLT-4 leukemia
# NCI-H226 lung = tested on: NCI-H226 lung
# NCI-H23 lung = tested on: NCI-H23 lung
# NCI-H460 lung = tested on: NCI-H460 lung
# NCI/ADR-RES ovarian = tested on: NCI/ADR-RES ovarian
# OVCAR-3 ovarian = tested on: OVCAR-3 ovarian
# OVCAR-4 ovarian = tested on: OVCAR-4 ovarian
# OVCAR-5 ovarian = tested on: OVCAR-5 ovarian
# OVCAR-8 ovarian = tested on: OVCAR-8 ovarian
# PC-3 prostate = tested on: PC-3 prostate
# SF-295 CNS = tested on: SF-295 CNS
# SF-539 CNS = tested on: SF-539 CNS
# SK-MEL-2 melanoma = tested on: SK-MEL-2 melanoma
# SK-MEL-28 melanoma = tested on: SK-MEL-28 melanoma
# SK-MEL-5 melanoma = tested on: SK-MEL-5 melanoma
# SK-OV-3 ovarian = tested on: SK-OV-3 ovarian
# SN12C renal = tested on: SN12C renal
# SNB-19 CNS = tested on: SNB-19 CNS
# SNB-75 CNS = tested on: SNB-75 CNS
# SR leukemia = tested on: SR leukemia
# SW-620 colon = tested on: SW-620 colon
# T-47D breast = tested on: T-47D breast
# TK-10 renal = tested on: TK-10 renal
# U251 CNS = tested on: U251 CNS
# UACC-257 melanoma = tested on: UACC-257 melanoma
# UACC-62 melanoma = tested on: UACC-62 melanoma
# UO-31 renal = tested on: UO-31 renal
# NCI-H522 lung = tested on: NCI-H522 lung
# RPMI-8226 leukemia = tested on: RPMI-8226 leukemia
# RXF 393 renal = tested on: RXF 393 renal
# SF-268 CNS = tested on: SF-268 CNS
smiles,measurement,setting,value
COc1ccc(CC2Cc3ccccc3CC(=O)N2)cc1OC (centres undefined),TGI,786-0 renal,> 100 µM
same,TGI,A498 renal,> 100 µM
same,TGI,A549 NSCLC,> 100 µM
same,TGI,ACHN renal,> 100 µM
same,TGI,BT-549 breast,> 100 µM
same,TGI,CAKI-1 renal,> 100 µM
same,TGI,CCRF-CEM leukemia,> 100 µM
same,TGI,COLO 205 colon,> 100 µM
same,TGI,DU-145 prostate,> 100 µM
same,TGI,EKVX NSCLC,> 100 µM
same,TGI,HCC-2998 colon,> 100 µM
same,TGI,HCT-116 colon,> 100 µM
same,TGI,HCT-15 colon,> 100 µM
same,TGI,HL-60(TB) leukemia,> 100 µM
same,TGI,HOP-62 NSCLC,> 100 µM
same,TGI,HOP-92 NSCLC,> 100 µM
same,TGI,HS 578T breast,> 100 µM
same,TGI,HT29 colon,> 100 µM
same,TGI,IGROV1 ovarian,> 100 µM
same,TGI,K-562 leukemia,> 100 µM
same,TGI,KM12 colon,> 100 µM
same,TGI,LOX IMVI melanoma,> 100 µM
same,TGI,M14 melanoma,> 100 µM
same,TGI,MALME-3M melanoma,> 100 µM
same,TGI,MCF7 breast,> 100 µM
same,TGI,MDA-MB-231 breast,> 100 µM
same,TGI,MDA-MB-435,> 100 µM
same,TGI,MDA-N,> 100 µM
same,TGI,MOLT-4 leukemia,65 µM
same,TGI,NCI-H226 lung,> 100 µM
same,TGI,NCI-H23 lung,> 100 µM
same,TGI,NCI-H460 lung,> 100 µM
same,TGI,NCI/ADR-RES ovarian,> 100 µM
same,TGI,OVCAR-3 ovarian,> 100 µM
same,TGI,OVCAR-4 ovarian,> 100 µM
same,TGI,OVCAR-5 ovarian,> 100 µM
same,TGI,OVCAR-8 ovarian,> 100 µM
same,TGI,PC-3 prostate,> 100 µM
same,TGI,SF-295 CNS,> 100 µM
same,TGI,SF-539 CNS,> 100 µM
same,TGI,SK-MEL-2 melanoma,> 100 µM
same,TGI,SK-MEL-28 melanoma,> 100 µM
same,TGI,SK-MEL-5 melanoma,54.1 µM
same,TGI,SK-OV-3 ovarian,> 100 µM
same,TGI,SN12C renal,> 100 µM
same,TGI,SNB-19 CNS,> 100 µM
same,TGI,SNB-75 CNS,> 100 µM
same,TGI,SR leukemia,> 100 µM
same,TGI,SW-620 colon,> 100 µM
same,TGI,T-47D breast,58.5 µM
same,TGI,TK-10 renal,> 100 µM
same,TGI,U251 CNS,> 100 µM
same,TGI,UACC-257 melanoma,> 100 µM
same,TGI,UACC-62 melanoma,> 100 µM
same,TGI,UO-31 renal,> 100 µM
Cc1nc(-c2cccnc2)sc1C(=O)CC(=O)C(=O)Nc1cccc(NC(=O)C(=O)CC(=O)c2sc(-c3cccnc3)nc2C)n1,TGI,786-0 renal,> 100 µM
same,TGI,A498 renal,> 100 µM
same,TGI,A549 NSCLC,> 100 µM
same,TGI,ACHN renal,> 100 µM
same,TGI,BT-549 breast,> 100 µM
same,TGI,CAKI-1 renal,> 100 µM
same,TGI,CCRF-CEM leukemia,> 100 µM
same,TGI,COLO 205 colon,> 100 µM
same,TGI,DU-145 prostate,> 100 µM
same,TGI,EKVX NSCLC,> 100 µM
same,TGI,HCC-2998 colon,> 100 µM
same,TGI,HCT-116 colon,> 100 µM
same,TGI,HCT-15 colon,> 100 µM
same,TGI,HL-60(TB) leukemia,> 100 µM
same,TGI,HOP-92 NSCLC,> 100 µM
same,TGI,HS 578T breast,> 100 µM
same,TGI,HT29 colon,> 100 µM
same,TGI,IGROV1 ovarian,> 100 µM
same,TGI,K-562 leukemia,> 100 µM
same,TGI,KM12 colon,> 100 µM
same,TGI,LOX IMVI melanoma,> 100 µM
same,TGI,M14 melanoma,> 100 µM
same,TGI,MALME-3M melanoma,> 100 µM
same,TGI,MCF7 breast,> 100 µM
same,TGI,MDA-MB-231 breast,> 100 µM
same,TGI,MDA-MB-435,> 100 µM
same,TGI,MDA-N,> 100 µM
same,TGI,MOLT-4 leukemia,> 100 µM
same,TGI,NCI-H226 lung,> 100 µM
same,TGI,NCI-H23 lung,> 100 µM
same,TGI,NCI-H460 lung,> 100 µM
same,TGI,NCI-H522 lung,> 100 µM
same,TGI,NCI/ADR-RES ovarian,> 100 µM
same,TGI,OVCAR-3 ovarian,> 100 µM
same,TGI,OVCAR-4 ovarian,> 100 µM
same,TGI,OVCAR-5 ovarian,> 100 µM
same,TGI,OVCAR-8 ovarian,> 100 µM
same,TGI,PC-3 prostate,> 100 µM
same,TGI,RPMI-8226 leukemia,> 100 µM
same,TGI,RXF 393 renal,> 100 µM
same,TGI,SF-268 CNS,> 100 µM
same,TGI,SF-295 CNS,> 100 µM
same,TGI,SF-539 CNS,> 100 µM
same,TGI,SK-MEL-2 melanoma,> 100 µM
same,TGI,SK-MEL-28 melanoma,> 100 µM
same,TGI,SK-MEL-5 melanoma,> 100 µM
same,TGI,SK-OV-3 ovarian,> 100 µM
same,TGI,SN12C renal,> 100 µM
same,TGI,SNB-19 CNS,> 100 µM
same,TGI,SNB-75 CNS,> 100 µM
same,TGI,SR leukemia,> 100 µM
same,TGI,SW-620 colon,> 100 µM
same,TGI,T-47D breast,> 100 µM
same,TGI,U251 CNS,> 100 µM
same,TGI,UACC-257 melanoma,> 100 µM
same,TGI,UACC-62 melanoma,> 100 µM
same,TGI,UO-31 renal,> 100 µM
Fc1ccccc1-c1cc(=S)c2cc3c(cc2[nH]1)OCO3,TGI,786-0 renal,> 100 µM
same,TGI,A498 renal,> 100 µM
same,TGI,A549 NSCLC,> 100 µM
same,TGI,ACHN renal,> 100 µM
same,TGI,BT-549 breast,> 100 µM
same,TGI,CAKI-1 renal,> 100 µM
same,TGI,CCRF-CEM leukemia,> 100 µM
same,TGI,COLO 205 colon,> 89 µM
same,TGI,DU-145 prostate,> 100 µM
same,TGI,EKVX NSCLC,> 100 µM
same,TGI,HCC-2998 colon,> 45.5 µM
same,TGI,HCT-116 colon,> 100 µM
same,TGI,HCT-15 colon,> 100 µM
same,TGI,HOP-62 NSCLC,> 100 µM
same,TGI,HOP-92 NSCLC,> 100 µM
same,TGI,HS 578T breast,> 100 µM
same,TGI,HT29 colon,40.2 µM
same,TGI,IGROV1 ovarian,> 100 µM
same,TGI,K-562 leukemia,> 100 µM
same,TGI,KM12 colon,> 100 µM
same,TGI,LOX IMVI melanoma,> 100 µM
same,TGI,M14 melanoma,> 100 µM
same,TGI,MALME-3M melanoma,> 100 µM
same,TGI,MCF7 breast,> 100 µM
same,TGI,MDA-MB-231 breast,> 100 µM
same,TGI,MDA-MB-435,> 23.6 µM
same,TGI,MDA-N,> 26.7 µM
same,TGI,MOLT-4 leukemia,> 25.1 µM
same,TGI,NCI-H226 lung,> 100 µM
same,TGI,NCI-H23 lung,> 100 µM
same,TGI,NCI-H460 lung,> 100 µM
same,TGI,NCI-H522 lung,57 µM
same,TGI,NCI/ADR-RES ovarian,63.2 µM
same,TGI,OVCAR-3 ovarian,> 100 µM
same,TGI,OVCAR-4 ovarian,> 100 µM
same,TGI,OVCAR-5 ovarian,> 100 µM
same,TGI,OVCAR-8 ovarian,> 100 µM
same,TGI,PC-3 prostate,> 80.2 µM
same,TGI,RPMI-8226 leukemia,> 70 µM
same,TGI,RXF 393 renal,> 100 µM
same,TGI,SF-268 CNS,> 100 µM
same,TGI,SF-295 CNS,> 100 µM
same,TGI,SF-539 CNS,> 89 µM
same,TGI,SK-MEL-2 melanoma,> 76.7 µM
same,TGI,SK-MEL-28 melanoma,> 100 µM
same,TGI,SK-MEL-5 melanoma,> 30.7 µM
same,TGI,SK-OV-3 ovarian,> 100 µM
same,TGI,SN12C renal,> 100 µM
same,TGI,SNB-19 CNS,98.1 µM
same,TGI,SR leukemia,> 100 µM
same,TGI,SW-620 colon,> 100 µM
same,TGI,T-47D breast,> 100 µM
same,TGI,TK-10 renal,> 100 µM
same,TGI,U251 CNS,> 100 µM
same,TGI,UACC-257 melanoma,> 100 µM
same,TGI,UACC-62 melanoma,> 30 µM
same,TGI,UO-31 renal,> 100 µM
